Test results from patent US4933332A, “11-desoxy-17-α-hydroxycorticosterone derivatives” (priority 1988, dated 1990).
Several values for one entry are separate records, joined by “and”; a condition that tells them apart may be missing. Identical values can stand only once.

How the values were obtained:
[1] = system: adrenalectomized rat youngsters; assay: Lifespan of adrenalectomized rat youngsters (biological test for the glucocorticoidal activity); format: in vivo; details: 25-days adrenalectomized rats
[2] = system: grafted hemoblastoses and solid tumors; assay: Antitumor activity, summary over the tumor models; format: in vivo, mice and rats
Text: (§1) For the study of the antitumor activity of the compounds according to the present invention use was made of regrafted hemoblastoses, grafted solid tumors, induced and spontaneous tumors of mice and rats. The following models were used: L 1210, P-388, hemocytoblastosis La, MOPC-406, viral lympholeukosis Mazurenko LMC-1, Ca-755, mammary carcinoma metastasizing into lungs KML, alveolar mammary cancer RMK-1, small intenstine adenocarcinoma AKATON, large intestine adenocarcinoma AKATOL, Lewis lung carcinoma LL, lung adenocarcinoma RL-67, hepatomae G-22c, G-60, G-61, sarcomae S-37 and S-180, DMBA (dimethylbenzanthracene)-induced and spontaneous mammary tumors, and […] (dimethylhydrazine)-induced tumors of the large intestine.
(§2) The studies were carried out on line mice and their first-generation hybrids, as well as on mongrel mice and rats.
(§3) The compounds were administered to the animals hypodermally in kernel oil. For the purpose of comparison, a known hormonocytostatic estracyte (estra-1,3,5-(10)treine-3,17β-diol-3N-[bis-(2-chloroethyl)carbamate-17-sodium phosphate] was used which was administered hypodermally in a solution of a 0.9% NaCl, chlorphenacyl and chloroambucyl which were administered intraperitoneally in a 10% solution of ethanol, sarcolysine (β-[p-di(2-chloroethyl)aminophenyl]-α-alanine hydrochloride)--intraperitoneally in a 0.9% solution of NaCl, prednisolone (pregnadiene-1,4-triol-11β,17α,21-dione-3,20)--per os in a starch size.
(§4) Criteria of the antitumor activity of the compounds according to the present invention are: extension of the lifespan of the animals (ELA, %) and tumor growth inhibition (TGI, %). [formula] T--average lifespan of the treated animals; C--average lifespan of the control animals. [formula] O--average tumor volume in the group of treated animals; K--average tumor volume in the group of control animals.

[3] = system: Small intestine adenocarcinoma AKATON; assay: Duration of the antitumor effect, small intestine adenocarcinoma AKATON; format: in vivo, mice and rats
Text: as §1, §2, §3, §4

[4] = system: receptors of glucocorticoids in grafted tumors of animals (RL-67, G-60, G-61, G-22c, Ca-755, S-37, AKATOL, AKATON); assay: Inhibition of specific combining of [^3 H]-dexamethazone in grafted tumors of animals; format: binding
Text: (§5) The inhibition, thereby, of a specific combining of [^3 H]-dexamethazone in tumors of animals reaches 70-100%. 11-Desoxy-17-α-hydroxy-21-[p-di(2-chloroethyl)aminophenylacetate] corticosterone also reacts with cytoplasmatic receptors of glucocorticoids in tumors in human beings.

[5] = system: DMBA-induced mammary tumors of rats; assay: Effect on DMBA-induced breast tumors in repeated treatment courses; format: in vivo
Text: as §1, §3, §4
In the case of using spontaneous or induced tumors, by means of carcinogenic substances, the criteria of the antitumor effect are: TGI, % or decrease in the tumor size, %, as compared to its initial value. The treatment of spontaneous and induced tumors was initiated after achieving, by these tumors, of a particular size excluding the possibility of a spontaneous regression.

[6] = system: acceptor regions of chromatin of tumoral and normal cells (kidney tumor PA, normal kidney); assay: Penetration into the cell nucleus and interaction with chromatin; set-up: species or system line Wistar; details: kidney tumor PA of rats
[7] = system: Large intestine adenocarcinoma AKATOL; assay: Antitumor effect on grafted large intestine adenocarcinoma AKATOL; format: in vivo, mice and rats; details: in vivo
[8] = Toxicological study, limiting toxicity
[9] = molecular target: T1, cytoplasmatic receptors of glucocorticoids (Homo sapiens, UniProt P04150); assay: Interaction with cytoplasmatic receptors of glucocorticoids; format: binding
T1 construct: cytoplasmatic receptors of glucocorticoids
T1 sequence (P04150 whole entry): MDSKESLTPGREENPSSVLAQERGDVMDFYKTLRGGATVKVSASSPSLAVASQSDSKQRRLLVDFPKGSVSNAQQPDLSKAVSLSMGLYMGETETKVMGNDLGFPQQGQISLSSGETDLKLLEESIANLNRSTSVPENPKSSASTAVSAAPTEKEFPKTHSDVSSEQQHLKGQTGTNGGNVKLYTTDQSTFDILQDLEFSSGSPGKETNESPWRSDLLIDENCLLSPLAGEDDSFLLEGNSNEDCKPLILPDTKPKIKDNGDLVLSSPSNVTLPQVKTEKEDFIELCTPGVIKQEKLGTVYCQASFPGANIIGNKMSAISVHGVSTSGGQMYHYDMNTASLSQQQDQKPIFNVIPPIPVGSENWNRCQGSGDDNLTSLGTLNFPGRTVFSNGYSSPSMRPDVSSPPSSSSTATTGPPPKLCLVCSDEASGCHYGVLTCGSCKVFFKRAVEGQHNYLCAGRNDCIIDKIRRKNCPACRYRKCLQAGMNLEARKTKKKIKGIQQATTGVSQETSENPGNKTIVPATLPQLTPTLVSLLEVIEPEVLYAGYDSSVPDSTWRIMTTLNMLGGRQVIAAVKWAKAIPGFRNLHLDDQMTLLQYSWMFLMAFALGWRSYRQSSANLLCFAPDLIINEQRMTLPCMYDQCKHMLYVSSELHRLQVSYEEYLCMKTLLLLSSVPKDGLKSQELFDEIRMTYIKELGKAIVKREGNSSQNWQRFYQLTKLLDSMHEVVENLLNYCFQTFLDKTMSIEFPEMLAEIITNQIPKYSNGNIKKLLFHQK
Text: The hormonal effect of 11-desoxy-17α-hydroxy-21-[p-di-(2-chloroethyl)aminophenylacetate] corticosterone is associated with exhibition of a glucocorticoidal activity thereby.

[10] = system: Alveolar mammary cancer RMK-1; assay: Antitumor effect on grafted alveolar mammary cancer RMK-1; format: in vivo, mice and rats; details: in vivo
Hepatoma G-61 = assay: Antitumor effect on grafted hepatoma G-61; format: in vivo, mice and rats; details: in vivo
S-180 = system: S-180; set-up: species or system mice and rats; details: in vivo
Hepatoma G-22c = assay: Antitumor effect on grafted hepatoma G-22c; format: in vivo, mice and rats; details: in vivo
Lewis lung carcinoma LL = assay: Antitumor effect on grafted Lewis lung carcinoma LL; format: in vivo, mice and rats; details: in vivo
[11] = system: Lung adenocarcinoma RL-67; assay: Duration of the antitumor effect, lung adenocarcinoma RL-67; format: in vivo, mice and rats
Text: as §1, §2, §3, §4

[12] = system: Breast carcinoma metastasizing into lungs KML; assay: Duration of the antitumor effect, breast carcinoma KML; format: in vivo, mice and rats
Text: as §1, §2, §3, §4

[13] = system: DNA of normal (spleen) cells; assay: Regeneration of injured DNA in normal tissue vs tumor tissue; details: compared with tumor tissue
S-37 = assay: Antitumor effect on grafted solid tumor S-37; format: in vivo, mice and rats; details: in vivo
[14] = system: cytoplasmatic receptors of glucocorticoids in human lung cancer; assay: Inhibition of specific combining of [^3 H]-dexamethazone, human lung cancer; format: binding
Text: as §5

Ca-755 = assay: Antitumor effect on grafted solid tumor Ca-755; format: in vivo, mice and rats; details: in vivo

Compound: C[C@]12CCC(=O)C=C1CC[C@@H]1[C@@H]2CC[C@@]2(C)[C@H]1CC[C@]2(O)C(=O)COC(=O)Cc1ccc(N(CCCl)CCCl)cc1 [11-desoxy-17α-hydroxy-21-[p-di(2-chloroethyl)-aminophenylacetate] corticosterone]
- extension of lifespan of adrenalectomized rat youngsters [1]: 113%
- inhibits growth of substantially all tumors ([2]; Table 2 summary, grafted solid tumors): 80-99%
- duration of tumor growth inhibition after completion of the treatment course ([2]; Table 3 summary): ≥ 1 month
- extension of the lifespan of the animals as compared to the control ([2]; Table 3 summary): 27-73%
- antitumor effect compared with reference agents ([2]; in vivo): considerably superior, as regards its activity on numerous models, over the known alkylating preparation sarcolysine
- Extension of the lifespan ([3]; 15 mg/kg/24 h × 5, days 2-6): 46%
- Tumor growth inhibition ([3]; 15 mg/kg/24 h × 5, days 2-6, day 15 of experiment): 66%
- Tumor growth inhibition ([3]; 15 mg/kg/24 h × 5, days 2-6, day 22 of experiment): 55%
- Tumor growth inhibition ([3]; 15 mg/kg/24 h × 5, days 2-6, day 29 of experiment): 46%
- reaction with receptors of glucocorticoids in grafted tumors ([4]; RL-67, G-60, G-61, G-22c, Ca-755, S-37, AKATOL, AKATON): reacts with receptors of glucocorticoids in grafted tumors of animals
- inhibition of specific combining of [^3 H]-dexamethazone ([4]; tumors of animals): 70-100%
- Increased lifespan ([5]; DMBA-induced, rats, 15 mg/kg/24 h × 5, 2 courses, 5 weeks interval): 18%
- Decrease or increase (+) of the tumor, % of the initial one ([5]; DMBA-induced, rats, 15 mg/kg/24 h × 5, 2 courses, 5 weeks interval, week 1): 33%
- Decrease or increase (+) of the tumor, % of the initial one ([5]; DMBA-induced, rats, 15 mg/kg/24 h × 5, 2 courses, 5 weeks interval, week 2): 32%
- Decrease or increase (+) of the tumor, % of the initial one ([5]; DMBA-induced, rats, 15 mg/kg/24 h × 5, 2 courses, 5 weeks interval, week 3): 11%
- Decrease or increase (+) of the tumor, % of the initial one ([5]; DMBA-induced, rats, 15 mg/kg/24 h × 5, 2 courses, 5 weeks interval, week 4): 24%
- Decrease or increase (+) of the tumor, % of the initial one ([5]; DMBA-induced, rats, 15 mg/kg/24 h × 5, 2 courses, 5 weeks interval, week 5): +26%
- Decrease or increase (+) of the tumor, % of the initial one ([5]; DMBA-induced, rats, 15 mg/kg/24 h × 5, 2 courses, 5 weeks interval, week 6): 23%
- Decrease or increase (+) of the tumor, % of the initial one ([5]; DMBA-induced, rats, 15 mg/kg/24 h × 5, 2 courses, 5 weeks interval, week 7): +3%
- Decrease or increase (+) of the tumor, % of the initial one ([5]; DMBA-induced, rats, 15 mg/kg/24 h × 5, 2 courses, 5 weeks interval, week 8): 13%
- reduction in size of induced tumors in breasts ([5]; compared to the size prior to the treatment): causes reduction in size of induced and spontaneous tumors
- penetration into cell nucleus and interaction with chromatin [6]: penetrates into the cell nucleus and interacts with acceptor regions of chromatin of both tumoral and normal cells
- Maximum tumor growth inhibition [7]: 98%
- limiting toxicity ([8]; degree depends on the dose): gastroenteral and neurotoxicity (diarrhea, vomition, convulsions)
- hematotoxicity ([8]; mouse, in vivo): does not restrict the administration
- Kd [9]: 95 nM
- interaction with cytoplasmatic receptors of glucocorticoids ([9]; [^3 H]-dexamethazone): interacts with cytoplasmatic receptors of glucocorticoids and inhibits combining of [^3 H]-dexamethazone therewith
- Maximum tumor growth inhibition [10]: 59%
- Maximum tumor growth inhibition (Hepatoma G-61): 89%
- Maximum tumor growth inhibition (S-180): 93% and 92%
- Extension of the lifespan (Hepatoma G-22c): 65%
- Maximum tumor growth inhibition (Hepatoma G-22c): 80%
- Tumor growth inhibition (Hepatoma G-22c): 80% and 68% and 57%
- Maximum tumor growth inhibition (Lewis lung carcinoma LL): 81%
- Extension of the lifespan (Lewis lung carcinoma LL; 15 mg/kg): 38%
- Tumor growth inhibition (Lewis lung carcinoma LL; 15 mg/kg): 76% and 56% and 39%
- Maximum tumor growth inhibition (Lewis lung carcinoma LL; 45 mg/kg): 90%
- Extension of the lifespan ([11]; 45 mg/kg × 1, day 2): 27%
- Tumor growth inhibition ([11]; 45 mg/kg × 1, day 2, day 15 of experiment): 81%
- Tumor growth inhibition ([11]; 45 mg/kg × 1, day 2, day 22 of experiment): 82%
- Tumor growth inhibition ([11]; 45 mg/kg × 1, day 2, day 29 of experiment): 80%
- Extension of the lifespan ([12]; 45 mg/kg × 1, day 10): 57%
- Tumor growth inhibition ([12]; 45 mg/kg × 1, day 10, day 15 of experiment): 80%
- Tumor growth inhibition ([12]; 45 mg/kg × 1, day 10, day 22 of experiment): 53%
- Tumor growth inhibition ([12]; 45 mg/kg × 1, day 10, day 29 of experiment): 61%
- regeneration of injured DNA in normal tissue [13]: starts earlier than in the tumor tissue
- Extension of the lifespan (S-37): 42%
- Maximum tumor growth inhibition (S-37): 99%
- Tumor growth inhibition (S-37): 99% and 94% and 91%
- recovery (S-37): 28%
- Maximum tumor growth inhibition (S-37; 45 mg/kg): 99%
- inhibition of specific combining of [^3 H]-dexamethazone [14]: 83%
- Extension of the lifespan (Ca-755): 73%
- Maximum tumor growth inhibition (Ca-755): 99%
- Tumor growth inhibition (Ca-755): 92% and 73% and 82%
- Maximum tumor growth inhibition (Ca-755; 45 mg/kg): 94%
